{"source": "paper PMC8861095", "about": "“Neurotoxicological profile of the hallucinogenic compound 25I-NBOMe” (Scientific Reports, 2022)", "key": {"apoptosis": {"test_system": "apoptosis", "experiment": "TUNEL assay for apoptotic signal in brain slices", "format": "in vivo, rat", "conditions": "frontal cortex, anterior and posterior hippocampus; acute or chronic (× 7) 0.3 mg/kg; 72 h after treatment; qualitative", "method": "(§1) Animals received single or multiple (once per day for seven days) subcutaneous injections of 25I-NBOMe dissolved in 0.9% NaCl at a dose of 0.3 mg/kg/2 ml. The control group was treated with 0.9% NaCl solution in the same way. All procedures were performed 72 h after the last injection. The time point of 72 h was chosen due to the possible generation of neurotoxicity via oxidative stress caused by reactive oxygen species (ROS). Exceptionally, for initial 25I-NBOMe brain distribution studies, rats received the drug in the dose of 1 and 10 mg/kg and were sacrificed 15 min after the drug administration. The rat blood plasma and brain tissues were collected immediately after rats’ decapitation. LSD (0.05 mg/kg, ip) was given daily for 7 days in a volume of 1 ml/kg, while MDMA 5 mg/kg, ip was injected in a volume of 2 ml/kg every second day (overall 4 injections).\nAs described above, animals were perfused transcardially and brains were fixed overnight in 4% PFA, then gradually dehydrated and stored in 70% ethanol (EtOH). Paraffin-embedded brain tissue was sectioned on a microtome (Leica, RM45) for 7-µm-thick sections. […] The apoptotic signal was assessed using Click-iT™ Plus TUNEL Assay for in situ apoptosis detection with Alexa Fluor™ 488 picolyl azide dye. […] Stained slides were examined under a fluorescence microscope (Nikon Eclipse50i, Japan) equipped with a camera and NIS Elements software."}, "[1]": {"test_system": "BrdU+ cells and BrdU/NeuN+ neurons in the hippocampus", "conditions": "doses 0.1, 0.3, and 1 mg/kg; vs control rats; cited from earlier work"}, "QT interval": {"test_system": "QT interval", "conditions": "electrocardiography in rats; cited from earlier work"}, "DNA": {"test_system": "DNA", "experiment": "Alkaline comet assay on nuclei from frontal cortex and hippocampus", "format": "in vivo, rat", "conditions": "for DNA damage (tail moment): single and repeated (× 7) 0.3 mg/kg sc, 72 h after administration, vs control", "method": "as §1\nThe alkaline comet assay was performed with the use of CometAssay® Reagent Kit for Single Cell Gel Electrophoresis Assay. At 72 h after the acute and chronic treatment with 25I-NBOMe (0.3 mg/kg, sc × 7 days), LSD (0.05 mg/kg, ip × 7 days) or MDMA (5 mg/kg, ip × 4 doses every second day) animals were sacrificed by decapitation and the frontal cortex (that consist of the sum of FC and mPFC) and hippocampus were dissected. After homogenization and several purification and centrifugation stages (as described previously in[17]), the nuclear suspension was obtained using a sucrose gradient (2.8 M/2.6 M, bottom to top). The nuclear fraction was mixed with low melting point agarose and transferred immediately onto CometSlides™. The following steps, including membrane lysis, DNA unwinding, alkaline electrophoresis, and staining (SYBR® Gold), were carried out according to Trevigen CometAssay® protocol. Stained sections were acquired and analyzed under a fluorescence microscope (Nikon Eclipse50i, Japan) equipped with a camera and NIS Elements software. The data was analyzed using OpenComet software v.1.3 (cometbio.org), a plugin of ImageJ program v.1.47 (NIH, Bethesda, MD, USA). DNA damage was presented as a tail moment. Tail moment incorporates a measure of both the smallest detectable size of migrating DNA (reflected by the comet tail length) and the number of damaged pieces (represented by the intensity of DNA in the tail)."}}, "data": [{"compound": "COc1cc(CCNCc2ccccc2OC)c(OC)cc1I", "note": "[25I-NBOMe, 4-Iodo-2,5-dimethoxy-N-(2-methoxybenzyl)phenethylamine]", "values": [{"measurement": "Apoptotic signal (TUNEL)", "setting": "apoptosis", "value": "did not indicate apoptotic signal"}, {"measurement": "Number of surviving BrdU+ cells and BrdU/NeuN+ neurons in the hippocampus", "setting": "[1]", "value": "significantly decreased"}, {"measurement": "QT interval", "setting": "QT interval", "value": "prolonged"}, {"measurement": "DNA damage (tail moment)", "setting": "DNA; frontal cortex", "value": "produced DNA damage"}, {"measurement": "DNA damage after multiple injections compared with a single dose", "setting": "DNA; hippocampus, 0.3 mg/kg sc × 7 vs single, 72 h", "value": "stronger than after a single dose"}, {"measurement": "DNA damage (tail moment)", "setting": "DNA; hippocampus", "value": "produced DNA damage"}]}]}
